Measurements reported in patent publication EP2977042B1, “OLOPATADINE FORMULATIONS FOR TOPICAL NASAL ADMINISTRATION” (Novartis AG, priority 2007, dated 2008).
Where a name gives a salt, the structure may show the parent alone.

What was measured:
Assay type in all cases: physicochemical
[1] = Visual observation of composition clarity during compounding
Protocol: An exemplary compounding procedure for the nasal composition shown in Table 1 is described as below. • 1. Tare a suitable compounding vessel with magnetic stir bar. Add approximately 80% of the batch weight of purified water. • 2. While stirring, add dibasic sodium phosphate (anhydrous), sodium chloride, edetate disodium, benzalkonium chloride and olopatadine HCl. • 3. Add equivalent to approximately 0.55 g, 6N hydrochloric acid per 100 ml batch. • 4. Allow adequate time between each addition for dissolution of each ingredient • 5. Add purified water to approximately 90% of final batch weight. • 6. Measure pH and adjust, if necessary, to 3.7 with 6N (and/or 1N) hydrochloric acid and 1N sodium hydroxide. • 7. Adjust to final batch weight with purified water (QS). • 8. Measure final pH. • 9. Filter through 0.2 µm filtration membrane. The two compositions shown in Table 2 below were prepared using the procedure described in Example 1 and visual observations of the compositions clarity were made at different points during the compounding procedure. […] In each case, visual observations relating to the composition's clarity were recorded. […] Visual observations of the clarity of each composition were recorded as each composition was prepared.

[2] = Dissolution rate of olopatadine hydrochloride in a nasal formulation containing 0.01% EDTA and 0.01% BAC, effect of NaCl and Na2HPO4 concentrations
Protocol: The effect of NaCl and Na2HPO4 concentrations on the dissolution rate of olopatadine hydrochloride in a nasal formulation containing 0.01% EDTA and 0.01% BAC was determined. The aqueous solubility of olopatadine HCl decreases with increasing concentration of NaCl. However, increasing phosphate buffer correlates with increased aqueous solubility of olopatadine HCl in the presence of NaCl.

[3] = Dissolution rate of olopatadine hydrochloride in water, effect of NaCl and Na2HPO4
Protocol: The effect of NaCl on the dissolution rate of olopatadine hydrochloride in water was determined.

[4] = Acid-base equilibrium (pKa values) of olopatadine
Excerpt: Olopatadine has both a carboxylic functional group (pKa1 = 4.18) and a tertiary amino group (pKa2 = 9.79). It exists in different ionic forms depending upon the pH of the solution. Olopatadine exists predominantly as a zwitterion in the pH range between the two pKa values with a negatively-charged carboxylic group and a positively-charged tertiary amino group. The isoelectric point of the olopatadine zwitterion is at pH 6.99. At a pH lower than pKa1, cationic olopatadine (with ionized tertiary amino group) is dominant. At a pH higher than pKa2, anionic olopatadine (with ionized carboxylic group) is dominant.

SMILES | solubility of 0.665% olopatadine hydrochloride in the tested nasal vehicle ([1]; without a phosphate salt) | dissolution of 0.665% olopatadine hydrochloride in water ([1]; without phosphate buffer, in the presence of 0.7% NaCl, pH as low as 3.6, compounding procedure of Example 1) | aqueous solubility ([2]; with increasing concentration of NaCl) | aqueous solubility ([2]; with increasing phosphate buffer, in the presence of NaCl) | effect of NaCl on the rate of dissolution ([3]; in water) | effect of addition of Na2HPO4 on dissolution ([3]; in water with NaCl) | time for complete dissolution of 0.6% olopatadine solution ([3]; in water with NaCl, with Na2HPO4) | time for complete dissolution of 0.6% olopatadine solution ([3]; in water with NaCl, without Na2HPO4, assuming the entire amount would eventually dissolve) | pKa1 ([4]; carboxylic functional group) | isoelectric point of the olopatadine zwitterion ([4]; given as pH) | pKa2 ([4]; tertiary amino group)
CN(C)CC/C=C1/c2ccccc2COc2ccc(CC(=O)O)cc21 [olopatadine HCl, (Z)-11-(3-dimethylaminopropylidene)-6,11-dihydro-dibenz-[b,e]oxepin-2-acetic acid] | not soluble | did not completely dissolve | decreases | increased |  |  |  |  |  |  | 
CN(C)CC/C=C1/c2ccccc2COc2ccc(CC(=O)O)cc21 [olopatadine, Z-11-(3-dimethylaminopropylidene)-6, 11-dihydrodibenz[b,e]oxepine-2-acetic acid] |  |  |  |  | significant reduction | dramatically improved | less than one | at least several hours | 4.18 | 6.99 | 9.79
